US9493435B2, “IRE-1α inhibitors” (MannKing Corporation, priority 2009, dated 2016)

Legend:
[1] = test system: IRE-1α-mediated XBP-1 splicing in human myeloma MM.1s cells; test: Cellular XBP-1 splicing assay in myeloma cells (RT-PCR); format: cell-based; conditions: Homo sapiens, MM1.S; average EC50, endogenous XBP-1 splicing in myeloma cells, DTT stress
Experimental: After an additional 45 minutes (2 hours total) with compound and DTT, the cells are harvested with TRIZOL® (a mono-phasic solution of phenol and guanidine isothiocyanate), and total RNA is prepared as directed by the manufacturer (Invitrogen). Human XBP-1 is amplified by RT-PCR with the following primers, which flank the 26 base unconventional intron excised by IRE-1α:
RT-PCR of unstressed (U) cells then generates the upper band. When cells are stressed (S) with the endoplasmic reticulum (ER) stressing agent DTT, IRE-1α is activated due to accumulating unfolded protein and the resulting RT-PCR product is 26 base pairs shorter.
Compounds which pass specificity assays are assayed for cellular EC50 using endogenous XBP-1 splicing in myeloma cells. XBP-1 is regulated through the excision of a 26 nucleotide intron from the XBP-1 mRNA by the highly specific endoribonuclease activity of IRE-1α. […] This splicing event is used to measure IRE-1α activity on XBP-1 mRNA in cells and tissues.
Briefly, compounds are incubated in the presence or absence of an ER stress agent (e.g., DTT), and the ratio of XBP-1u (unspliced) to XBP-1s (spliced) is quantified by RT-PCR.

[2] = molecular target: human IRE-1α (GST-IRE-1α) (Homo sapiens (Human), UniProt O75460); test: IRE-1α assay (cleavage of mini-XBP-1 mRNA stem-loop substrate); format: biochemical; conditions: average IC50 for inhibition of IRE-1α in vitro
Experimental: A fusion protein comprising glutathione S transferase (GST) and human IRE-1α (GST-IRE-1α) obtained from a 500 ml baculovirus-infected insect cell culture can be used to measure IRE-1α activity in vitro. Five μl of a reaction mixture comprising 1× reaction buffer (5× reaction buffer is 100 mM Hepes pH 7.5, 250 mM KOAc, 2.5 mM MgCl2), 3 mM DTT, and 0.4% polyethylene glycol water is added to each well of 384 well plates. Twenty-five nanoliters of a 1 mM test compound solution are added to test wells. […] Negative control wells contain only reaction mixture and test compound. After spinning the plates at 1200 rpm for 30 seconds, 3 μl of an IRE-1α human mini-XBP-1 mRNA stem-loop substrate [NT] ID NO:1), labeled with the fluorescent dye Cy5 at the [NT] end, are added to each well of a control plate. The plates are again spun at 1200 rpm for 30 seconds. […] The plates are covered with lids and incubated for one hour at 30° C. The plates are then transferred to an […] microplate reader. Data is analyzed using data analysis software, and the percent activity of IRE-1α is calculated.

human IRE-1α (GST-IRE-1α), sequence (O75460 19-977): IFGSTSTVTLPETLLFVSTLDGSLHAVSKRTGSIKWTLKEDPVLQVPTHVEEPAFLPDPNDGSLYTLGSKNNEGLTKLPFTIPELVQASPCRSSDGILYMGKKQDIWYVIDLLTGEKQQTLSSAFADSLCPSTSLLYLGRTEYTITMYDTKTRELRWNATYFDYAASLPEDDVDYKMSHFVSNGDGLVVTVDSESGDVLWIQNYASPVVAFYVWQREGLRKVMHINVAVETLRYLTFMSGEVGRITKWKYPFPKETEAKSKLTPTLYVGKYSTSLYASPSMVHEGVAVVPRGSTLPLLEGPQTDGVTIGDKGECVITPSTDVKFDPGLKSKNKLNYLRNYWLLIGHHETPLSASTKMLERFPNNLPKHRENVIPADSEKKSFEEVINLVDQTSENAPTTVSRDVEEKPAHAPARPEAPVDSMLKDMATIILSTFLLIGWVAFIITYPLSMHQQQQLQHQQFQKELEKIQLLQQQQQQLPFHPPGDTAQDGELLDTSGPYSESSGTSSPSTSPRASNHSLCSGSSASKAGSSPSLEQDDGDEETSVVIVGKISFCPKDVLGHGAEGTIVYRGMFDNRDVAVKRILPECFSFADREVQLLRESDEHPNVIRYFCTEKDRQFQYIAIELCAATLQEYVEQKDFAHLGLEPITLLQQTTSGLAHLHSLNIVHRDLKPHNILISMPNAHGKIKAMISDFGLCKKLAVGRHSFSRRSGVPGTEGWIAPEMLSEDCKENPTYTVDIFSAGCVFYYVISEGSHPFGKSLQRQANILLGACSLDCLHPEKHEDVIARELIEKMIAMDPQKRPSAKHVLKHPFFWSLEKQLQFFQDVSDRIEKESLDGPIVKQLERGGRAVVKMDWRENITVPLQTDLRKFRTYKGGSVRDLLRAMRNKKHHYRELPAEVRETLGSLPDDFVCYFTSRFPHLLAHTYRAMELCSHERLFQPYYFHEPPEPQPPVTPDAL

Compound	EC50 [1] [nM]	IC50 [2] [nM]
O=Cc1c(O)ccc2cc(N3CCCC3)ccc12 [Compound 59]	> 10000	> 1000
CN1CCN(C(=O)c2csc(-c3ccc4c(C=O)c(O)ccc4c3)n2)CC1 [Compound 60]	< 10000	< 100
CN1CCN(C(=O)c2cnc(-c3ccc4c(C=O)c(O)ccc4c3)s2)CC1 [Compound 61]	< 10000	< 100
CN1CCCCC1CNC(=O)c1ccc(-c2ccc3c(C=O)c(O)ccc3c2)s1 (stereo not drawn) [Compound 62]	< 10000	< 100
CN1CCN(C(=O)/C=C/c2ccc3c(C=O)c(O)ccc3c2)CC1 [Compound 63]	< 10000	< 1000
CSc1ncc(-c2ccc3c(C=O)c(O)ccc3c2)cn1 [Compound 64]	> 10000	> 1000
Cc1nc(-c2ccc3c(C=O)c(O)ccc3c2)sc1C(=O)N1CCN(C)CC1 [Compound 65]	< 10000	< 100
CN1CCN(C(=O)c2cc(-c3ccc4c(C=O)c(O)ccc4c3)ccn2)CC1 [Compound 66]	< 10000	< 1000
CN1CCN(C(=O)c2cncc(-c3ccc4c(C=O)c(O)ccc4c3)c2)CC1 [Compound 67]	< 10000	< 1000
CN1CCCC(CNC(=O)c2ccc(-c3ccc4c(C=O)c(O)ccc4c3)s2)C1 (stereo not drawn) [Compound 69]	< 10000	< 100
O=Cc1c(O)ccc2cc(-c3ccc(C(=O)NCCN4CCOCC4)o3)ccc12 [Compound 71]	< 10000	< 100
CN(C)CCNC(=O)c1ccc(-c2ccc3c(C=O)c(O)ccc3c2)s1 [Compound 72]	< 10000	< 100
O=Cc1c(O)ccc2cc(-c3ccc(C(=O)NC4CCNC4)s3)ccc12 (stereo not drawn) [Compound 73]	< 10000	< 100
CN(C)CCCNC(=O)c1ccc(-c2ccc3c(C=O)c(O)ccc3c2)s1 [Compound 74]	> 10000	< 1000
O=Cc1c(O)ccc2cc(-c3ccc(C(=O)N4CC5CC4CN5)s3)ccc12 (stereo not drawn) [Compound 75]	< 10000	< 100
CN1CCN(C(=O)c2coc(-c3ccc4c(C=O)c(O)ccc4c3)n2)CC1 [Compound 76]	< 10000	< 1000
O=Cc1c(O)ccc2cc(-c3ccc(C(=O)NCC4CCCCN4)o3)ccc12 (stereo not drawn) [Compound 77]	< 10000	> 1000
CN1CCCC(NC(=O)c2ccc(-c3ccc4c(C=O)c(O)ccc4c3)s2)C1 (stereo not drawn) [Compound 78]	< 10000	< 100
CN1CCC(NC(=O)c2ccc(-c3ccc4c(C=O)c(O)ccc4c3)s2)C1 (stereo not drawn) [Compound 79]	< 10000	< 100
CN1CCN(c2ncc(-c3ccc4c(C=O)c(O)ccc4c3)cn2)CC1 [Compound 80]	< 10000	< 100

Compound	EC50 [1] [nM]	IC50 [2] [nM]
O=Cc1c(O)ccc2cc(N3CCN(c4ccccn4)CC3)ccc12 [Compound 81]	> 10000	> 1000
O=Cc1c(O)ccc2cc(N3CCC(N4CCOCC4)CC3)ccc12 [Compound 82]	< 10000	< 1000
CC(=O)N1CCN(c2ccc3c(C=O)c(O)ccc3c2)CC1 [Compound 83]	> 10000	< 1000
CC(=O)NC1CCN(c2ccc3c(C=O)c(O)ccc3c2)CC1 [Compound 84]	> 10000	< 1000
CN(C)C1CCN(c2ccc3c(C=O)c(O)ccc3c2)CC1 [Compound 85]	< 10000	< 10
CN1CCN(C2CCN(c3ccc4c(C=O)c(O)ccc4c3)CC2)CC1 [Compound 86]	< 10000	< 10
CN1CCN(c2ccc3ccc(O)c(C=O)c3c2)CC1 [Compound 87]	> 10000	> 1000
O=Cc1c(O)ccc2ccc(N3CCOCC3)cc12 [Compound 88]	< 10000	> 1000
CN1CCN(C2CCN(c3ccc4ccc(O)c(C=O)c4c3)CC2)CC1 [Compound 89]	> 10000	> 1000
O=Cc1c(O)ccc2ccc(N3CCC(N4CCOCC4)CC3)cc12 [Compound 90]	< 10000	> 1000
CN1CCN(C(=O)C2CCN(c3ccc4c(C=O)c(O)ccc4c3)CC2)CC1 [Compound 91]	> 10000	> 1000
CS(=O)(=O)N1CCN(c2ccc3c(C=O)c(O)ccc3c2)CC1 [Compound 92, 2-Hydroxy-6-(4-methanesulfonyl-piperazin-1-yl)-naphthalene-1-carbaldehyde]	> 10000	> 1000
CS(=O)(=O)NC1CCN(c2ccc3c(C=O)c(O)ccc3c2)CC1 [Compound 93]	< 10000	> 1000
CS(=O)(=O)NC1CCCN(c2ccc3c(C=O)c(O)ccc3c2)C1 (stereo not drawn) [Compound 94]	> 10000	> 1000
O=Cc1c(O)ccc2cc(N3CCN(Cc4ccccc4)CC3)ccc12 [Compound 95]	> 10000	> 1000
O=Cc1c(O)ccc2cc(N3CCN(Cc4ccccn4)CC3)ccc12 [Compound 96, 2-Hydroxy-6-(4-pyridin-2-ylmethyl-piperazin-1-yl)-naphthalene-1-carbaldehyde]	> 10000	1000
O=Cc1c(O)ccc2cc(N3CCC(NCc4ccccc4)CC3)ccc12 [Compound 97]	> 10000	< 1000
O=Cc1c(O)ccc2cc(N3CCCC(NCc4ccccc4)C3)ccc12 (stereo not drawn) [Compound 98]	< 10000	1000
CC(C)N1CCN(c2ccc3c(C=O)c(O)ccc3c2)CC1 [Compound 99]	< 10000	> 1000
O=Cc1c(O)ccc2cc(N3CCN(Cc4cccnc4)CC3)ccc12 [Compound 100]	> 10000	< 1000

Compound	EC50 [1] [nM]	IC50 [2] [nM]
O=Cc1c(O)ccc2cc(-c3ccc(C(=O)N4CCOCC4)cn3)ccc12 [Compound 101]	> 10000	< 1000
O=Cc1c(O)ccc2cc(N3CCN(c4cccnc4)CC3)ccc12 [Compound 103]	> 10000	> 1000
O=Cc1c(O)ccc2ccc(N3CCCC3)cc12 [Compound 104]	> 10000	> 1000
COCc1cn(-c2ccc3c(C=O)c(O)ccc3c2)nn1 [Compound 105]	< 10000	< 1000
CN(C)C1CCN(c2ccc3c(C=O)c(O)ccc3c2)C1 (stereo not drawn) [Compound 106]	> 10000	> 1000
O=Cc1c(O)ccc2cc(N3CCC(N4CCOCC4)C3)ccc12 (stereo not drawn) [Compound 107]	> 10000	> 1000
O=Cc1c(O)ccc2cc(N3CCCC(NCc4ccccn4)C3)ccc12 (stereo not drawn) [Compound 108]	> 10000	> 1000
Cc1nc(-c2ccc3c(C=O)c(O)ccc3c2)sc1C(=O)N1CCOCC1 [Compound 109]	< 10000	< 100
O=Cc1c(O)ccc2cc(N3CCC(C(=O)N4CCOCC4)CC3)ccc12 [Compound 110]	> 10000	< 1000
O=Cc1c(O)ccc2cc(N3CCC(C(=O)N4CCOCC4)C3)ccc12 (stereo not drawn) [Compound 111, 2-Hydroxy-6-[3-(morpholine-4-carbonyl)-pyrrolidin-1-yl]-naphthalene-1-carbaldehyde]	> 10000	< 1000
CN1CCN(C(=O)C2CCN(c3ccc4c(C=O)c(O)ccc4c3)C2)CC1 (stereo not drawn) [Compound 112]	< 10000	< 1000
O=Cc1c(O)ccc2cc(N3CCN(C4CCNCC4)CC3)ccc12 [Compound 113]	> 10000	> 1000
O=Cc1c(O)ccc2cc(N3CCC(NCc4ccccn4)CC3)ccc12 [Compound 114]	> 10000	< 1000
O=Cc1c(O)ccc2cc(N3CCC(NCc4cccnc4)CC3)ccc12 [Compound 116]	< 10000	> 1000
O=Cc1c(O)ccc2cc(N3CCC(N4CCCCC4)C3)ccc12 (stereo not drawn) [Compound 117]	< 10000	< 1000
CN1CCN(C2CCN(c3ccc4c(C=O)c(O)ccc4c3)C2)CC1 (stereo not drawn) [Compound 118]	< 10000	> 1000
CN1CCN(c2nc(-c3ccc4c(C=O)c(O)ccc4c3)cs2)CC1 [Compound 120]	10000	< 1000
CN1CCN(c2ncc(-c3ccc4c(C=O)c(O)ccc4c3)s2)CC1 [Compound 121]	< 10000	< 100
CNC1CCN(c2ccc3c(C=O)c(O)ccc3c2)C1 (stereo not drawn) [Compound 122]	< 10000	> 1000
O=Cc1c(O)ccc2cc(-c3ccc(C(=O)N4CCCC4)nc3)ccc12 [Compound 124]	< 10000	< 1000
